Test results reported in patent US11155586B2, “Cystine knot scaffold platform” (Genentech, Inc., priority 2015, dated 2021).
Positions of bridges follow the written chain, without caps; N, C: chain ends. Residues, ends and D or L forms follow the SMILES beside them.

Experiments:
[1] = test system: choroidal neovascularization in rat eyes; experiment: VEGF-A driven model of laser-induced choroidal neovascularization; format: in vivo; details: intravitreal, 14-day period, vs control eyes, FIG. 12
Protocol: Next, VEGF-A binding variants VEGF_CKP9.54.90, VEGF_CKP9.63.12, and VEGF_CKP9.63.44 were assessed for their in vivo efficacy in a VEGF-A driven model of choroidal neovascularization. Laser-burnt spots were created in rat eyes and the formation of new vessels was monitored after a 14-day period in the presence and absence of peptide that was administered intravitreally at different intervals.

[2] = Oxidative stability (AAPH, LC-MS); format: physicochemical; details: 16 hours at 40° C.
Protocol: The oxidative stability of various CKP variants was assayed as follows: 5 μL of 11 mM AAPH (Calbiochem catalog no. 100110) in water was added to 50 uL of variant peptide sample (prepared as 1 mg/mL peptide in 20 mM histidine acetate pH 5.5) and the mix was incubated for 16 hours at 40° C. At the end of the incubation, the sample was quenched by addition of 27.5 uL of 40 mM methionine, followed by addition of 160 ul of 20 mM Histidine acetate, 100 mM sucrose at pH 5.5 to dilute the samples. The reactions were analyzed by LC-MS.

IGF and IGFR = target: T1, IGF and IGFR (Homo sapiens, UniProt P05019); experiment: Competition ELISA, growth factor/receptor interaction; format: binding; details: FIG. 2B
T1 construct: purchased R &D Systems (Minneapolis, Minn.)
T1 sequence (P05019 49-118 limits assumed): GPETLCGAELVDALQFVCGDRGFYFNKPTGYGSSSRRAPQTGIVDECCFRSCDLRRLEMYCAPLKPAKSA
Protocol: (§1) Binding specificity of each peptide was established by competition ELISA. […] After blocking with block buffer (PBS with 0.5% BSA and 0.05% TWEEN®20) for 2 hours at room temperature, the receptor-Fc fusions or biotinylated receptors were serially diluted using assay buffer (PBS with 0.5% BSA and 0.05% TWEEN®20) and incubated for 1 hour at room temperature. […] Competition ELISA was conducted in an identical fashion as described above except after blocking, a mixture of serially diluted peptide containing a constant concentration of receptor-Fc fusion or biotinylated receptor (concentration of receptor was set to EC60) was added and incubated for 1 hour. All recombinant human proteins and antibodies were purchased from R &D Systems (Minneapolis, Minn.).

PDGF and PDGFR = target: T2, PDGF and PDGFR (Homo sapiens, UniProt P01127); experiment: as above; format: binding; details: FIG. 2B
T2 construct: purchased R &D Systems (Minneapolis, Minn.)
T2 sequence (P01127 82-190 limits assumed): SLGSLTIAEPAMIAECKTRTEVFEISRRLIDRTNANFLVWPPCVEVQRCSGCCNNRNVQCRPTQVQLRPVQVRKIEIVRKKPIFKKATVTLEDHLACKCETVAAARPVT
Protocol: as §1

VEGF-C and Flt-4 = target: T3, VEGF-C and Flt-4 (Homo sapiens, UniProt P49767); experiment: as above; format: binding; details: FIG. 2A
T3 construct: purchased R &D Systems (Minneapolis, Minn.)
T3 sequence (P49767 112-227 limits assumed): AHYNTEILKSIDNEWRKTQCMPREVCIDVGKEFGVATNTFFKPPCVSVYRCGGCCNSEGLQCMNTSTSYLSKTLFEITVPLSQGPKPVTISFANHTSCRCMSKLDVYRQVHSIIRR
Protocol: as §1

VEGF-D and Flt-4 = target: T4, VEGF-D and Flt-4 (Homo sapiens, UniProt O43915); experiment: as above; format: binding; details: FIG. 2A
T4 construct: purchased R &D Systems (Minneapolis, Minn.)
T4 sequence (O43915 89-205 limits assumed): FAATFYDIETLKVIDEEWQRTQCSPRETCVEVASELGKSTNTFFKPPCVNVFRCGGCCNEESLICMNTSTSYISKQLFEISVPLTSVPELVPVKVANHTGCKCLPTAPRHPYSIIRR
Protocol: as §1

EGF and EGFR = target: T5, EGF and EGFR (Homo sapiens, UniProt P01133); experiment: as above; format: binding; details: FIG. 2B
T5 construct: purchased R &D Systems (Minneapolis, Minn.)
T5 sequence (P01133 971-1023 limits assumed): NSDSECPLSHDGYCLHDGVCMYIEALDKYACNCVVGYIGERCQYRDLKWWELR
Protocol: as §1

VEGF-A and Flt-1 = target: T6, VEGF-A and Flt-1 (Homo sapiens, UniProt P15692); experiment: as above; format: binding; details: FIGS. 2A and 2B
T6 construct: VEGF-A(8-109) and Flt-1; purchased R &D Systems (Minneapolis, Minn.)
T6 sequence (P15692 214-315): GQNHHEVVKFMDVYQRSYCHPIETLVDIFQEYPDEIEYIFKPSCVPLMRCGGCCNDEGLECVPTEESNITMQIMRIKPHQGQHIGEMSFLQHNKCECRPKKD
Protocol: as §1

NGF and NGFR = target: T7, NGF and NGFR (Homo sapiens, UniProt P01138); experiment: as above; format: binding; details: FIG. 2B
T7 construct: purchased R &D Systems (Minneapolis, Minn.)
T7 sequence (P01138 122-241): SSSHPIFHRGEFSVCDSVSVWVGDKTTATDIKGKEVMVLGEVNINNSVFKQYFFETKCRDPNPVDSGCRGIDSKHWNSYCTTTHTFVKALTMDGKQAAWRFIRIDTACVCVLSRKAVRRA
Protocol: as §1

PIGF-2 and Flt-1 = target: T8, PIGF-2 and Flt-1 (Homo sapiens, UniProt P49763); experiment: as above; format: binding; details: FIG. 2A
T8 construct: purchased R &D Systems (Minneapolis, Minn.)
T8 sequence (P49763 19-170 isoform P49763-3 limits assumed): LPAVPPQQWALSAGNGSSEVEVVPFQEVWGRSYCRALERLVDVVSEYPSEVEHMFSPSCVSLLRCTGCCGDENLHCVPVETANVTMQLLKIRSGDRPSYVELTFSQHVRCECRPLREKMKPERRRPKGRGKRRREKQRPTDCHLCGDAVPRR
Protocol: as §1

VEGF-B and Flt-1 = target: T9, VEGF-B and Flt-1 (Homo sapiens, UniProt P49765); experiment: as above; format: binding; details: FIG. 2A
T9 construct: purchased R &D Systems (Minneapolis, Minn.)
T9 sequence (P49765 22-136 limits assumed): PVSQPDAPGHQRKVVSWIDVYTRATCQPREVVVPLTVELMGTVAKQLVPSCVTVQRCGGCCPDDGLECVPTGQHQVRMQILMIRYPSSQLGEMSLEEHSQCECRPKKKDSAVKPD
Protocol: as §1

SMILES: CC[C@H](C)[C@@H]1NC(=O)[C@H](CC(N)=O)NC(=O)[C@@H](NC(=O)CN)CSSC[C@@H](C(=O)N[C@H](C(=O)N[C@H]2CSSC[C@@H](C(=O)NCC(=O)O)NC(=O)[C@H](CO)NC(=O)[C@H](CCC(N)=O)NC(=O)[C@H](Cc3ccc(O)cc3)NC(=O)[C@H](Cc3ccc(O)cc3)NC(=O)[C@H](CCC(N)=O)NC2=O)C(C)C)NC(=O)CNC(=O)[C@H](C)NC(=O)[C@H](CC(C)C)NC(=O)[C@@H]2CSSC[C@H](NC(=O)CNC(=O)[C@H](Cc3c[nH]c4ccccc34)NC(=O)[C@H](Cc3ccccc3)NC(=O)[C@@H]3CCCN3C(=O)[C@H](CC(C)C)NC(=O)[C@H](CCSC)NC1=O)C(=O)NCC(=O)N[C@@H](CCCNC(=N)N)C(=O)N[C@@H](CC(=O)O)C(=O)N[C@@H](Cc1ccccc1)C(=O)N[C@@H](CCC(=O)O)C(=O)N2 [VEGF_CKP9.54.90] (H-GCNIMLPFWGCGRDFECLAGCVCQYYQSCG-OH; disulfide 2-21, 11-17, 23-29; N-terminus and C-terminus assumed)
- inhibition of laser-induced choroidal neovascularization (neovascular area) [1]: effective inhibition
- oxidation at Met5 within loop 1 [2]: ~30%
- disruption of the interaction between IGF and IGFR (IGF and IGFR): not disrupt
- disruption of the interaction between PDGF and PDGFR (PDGF and PDGFR): not disrupt
- disruption of the interaction between VEGF-C and Flt-4 (VEGF-C and Flt-4): not disrupt
- disruption of the interaction between VEGF-D and Flt-4 (VEGF-D and Flt-4): not disrupt
- disruption of the interaction between EGF and EGFR (EGF and EGFR): not disrupt
- disruption of the interaction between VEGF-A and Flt-1 (VEGF-A and Flt-1): disrupts
- disruption of the interaction between NGF and NGFR (NGF and NGFR): not disrupt
- disruption of the interaction between PIGF-2 and Flt-1 (PIGF-2 and Flt-1): not disrupt
- disruption of the interaction between VEGF-B and Flt-1 (VEGF-B and Flt-1): not disrupt
